These results are taken from patent US12433953B2, “Compositions and methods related to tumor activated antibodies targeting EGFR and effector cell antigens” (Janux Therapeutics, Inc., priority 2021, dated 2025).

As usually defined, the EC50 is the concentration at which the effect is half-maximal. For orientation: IC50 means the concentration at which inhibition is half-maximal.

Where two headings read alike, the source gives them in different places.

The target of assay [1] is EGFR IgG. The assay can be described thus: ELISA binding of peptides to EGFR IgG. Particulars: Table 12; antibody concentration for half maximal signal; read-out: EC50 for peptide binding to EGFR IgG. In general terms: An ELISA detects its analyte on a solid surface through an enzyme-linked reagent.
Assay [2] concerns the target EGFR IgG binding to the EGFR antigen. The assay can be described thus: ELISA competitive inhibition of EGFR IgG binding to EGFR antigen. Particulars: for IC50: read-out: IC50 for peptide inhibition of EGFR IgG binding to EGFR antigen, Table 13.
Assay [3] addresses EGFR Fab. The assay can be described thus: ELISA binding of peptides to EGFR Fab. Particulars: read-out: EC50 for peptide binding to αEGFR Fab.
For assay [4], the system named is EGFR Fab binding to the EGFR antigen. The assay can be described thus: ELISA competitive inhibition of EGFR Fab binding to EGFR antigen.

For `CSCC[C@@H]1NC(=O)[C@H](CC(C)C)NC(=O)[C@H](CO)NC(=O)[C@H](CCCNC(=N)N)NC(=O)[C@@H](NC(=O)[C@H](Cc2c[nH]c3ccccc23)NC(=O)[C@@H](N)CC(=O)O)CSSC[C@@H](C(=O)N2CCC[C@H]2C(=O)O)NC(=O)[C@H](CC(C)C)NC(=O)[C@H](CC(=O)O)NC(=O)[C@H]([C@@H](C)O)NC(=O)[C@H](Cc2ccc(O)cc2)NC(=O)[C@H](CO)NC1=O` [Peptide-1], in assay [1], the EC50 was 52 nM. For the same compound, in assay [2], the IC50 is over 300 nM.

Consider `CC[C@H](C)[C@@H]1NC(=O)[C@H](CC(C)C)NC(=O)[C@H](Cc2c[nH]cn2)NC(=O)[C@H](C)NC(=O)[C@H](CC(=O)O)NC(=O)[C@H](C)NC(=O)[C@@H](NC(=O)[C@H](CO)NC(=O)[C@@H](N)[C@@H](C)O)CSSC[C@@H](C(=O)N[C@@H](CO)C(=O)O)NC(=O)[C@H](CO)NC(=O)[C@@H]2CCCN2C(=O)[C@H](C)NC1=O` [Peptide-2], for which, in assay [1], the EC50 is 84 nM. In assay [2], the IC50 is over 300 nM.

As for `CC(C)[C@@H]1NC(=O)[C@H](CCCNC(=N)N)NC(=O)[C@H](CC(=O)O)NC(=O)[C@H](Cc2c[nH]c3ccccc23)NC(=O)[C@H](CCC(N)=O)NC(=O)[C@@H](NC(=O)[C@@H](N)CC(N)=O)CSSC[C@@H](C(=O)N[C@@H](CO)C(=O)O)NC(=O)[C@H](C)NC(=O)[C@H](Cc2ccc(O)cc2)NC(=O)[C@H]([C@@H](C)O)NC(=O)[C@H](Cc2c[nH]cn2)NC(=O)[C@H](CCC(=O)O)NC1=O` [Peptide-3], the EC50 in assay [1] was found to be 413 nM. For the same compound, the IC50 in assay [2] was over 300 nM.

As to `CSCC[C@@H]1NC(=O)[C@H](Cc2c[nH]cn2)NC(=O)[C@H](CO)NC(=O)CNC(=O)[C@H](CC(=O)O)NC(=O)[C@H](Cc2c[nH]cn2)NC(=O)[C@@H](NC(=O)[C@H](CO)NC(=O)[C@@H](NC(=O)[C@@H](N)Cc2c[nH]c3ccccc23)C(C)C)CSSC[C@@H](C(=O)N[C@@H](Cc2ccccc2)C(=O)N[C@@H](Cc2c[nH]cn2)C(=O)O)NC(=O)[C@H]([C@@H](C)O)NC1=O` [Peptide-4], the IC50 in assay [2] was over 300 nM.

As to `CSCC[C@H](N)C(=O)N[C@@H](CC(N)=O)C(=O)N[C@H]1CSSC[C@@H](C(=O)N[C@@H](CC(C)C)C(=O)N[C@H](C(=O)O)C(C)C)NC(=O)[C@H](Cc2ccc(O)cc2)NC(=O)[C@H](CCC(=O)O)NC(=O)[C@H](C(C)C)NC(=O)[C@H](Cc2c[nH]c3ccccc23)NC(=O)[C@H](CC(C)C)NC(=O)[C@H](CCCNC(=N)N)NC(=O)[C@H](CC(N)=O)NC(=O)[C@H](CC(C)C)NC1=O` [Peptide-5], the EC50 in assay [1] was 2 nM. Moreover, the IC50 in assay [2] is over 300 nM.

In the case of `CC(C)[C@@H]1NC(=O)[C@H](Cc2c[nH]c3ccccc23)NC(=O)[C@H]([C@@H](C)O)NC(=O)[C@H](CC(N)=O)NC(=O)[C@H](CC(=O)O)NC(=O)[C@H](CCC(N)=O)NC(=O)CNC(=O)[C@@H](NC(=O)[C@@H](N)Cc2ccc(O)cc2)CSSC[C@@H](C(=O)N[C@@H](Cc2ccccc2)C(=O)O)NC(=O)CNC(=O)[C@H](CCC(=O)O)NC(=O)[C@H](CCCNC(=N)N)NC1=O` [Peptide-6], the EC50 in assay [1] worked out at 0.3 nM; in assay [3] (Table 16), 458 nM. For the same compound, in assay [2] (among peptide-1 to peptide-6), the “inhibiting EGFR IgG binding to the EGFR antigen (in words)” value is recorded as “most effective at inhibiting EGFR IgG binding to the EGFR antigen”.

Take `CC[C@H](C)[C@@H]1NC(=O)[C@@H]2CCCN2C(=O)[C@H](CCCCN)NC(=O)[C@H](C)NC(=O)[C@@H]2CCCN2C(=O)[C@H](CC(=O)O)NC(=O)[C@H](Cc2ccccc2)NC(=O)[C@H](Cc2c[nH]cn2)NC(=O)[C@H](Cc2ccccc2)NC(=O)[C@H](CC(C)C)NC(=O)[C@@H](NC(=O)[C@@H]2CCCN2)CSSC[C@@H](C(=O)N[C@@H](CO)C(=O)O)NC1=O` [Peptide-46, PCLFHFDPAKPICS]: the EC50 in assay [3] (Table 25, peptide-8 optimization) was found to be 4.9 nM. The “potency as peptide mask (in words)” value in assay [4] (binding and inhibition data relative to peptide-8) is given as “more potent peptide masks”. In assay [4] (read-out: IC50 for peptide inhibition of αEGFR Fab binding to EGFR antigen, Table 27, peptide-8 optimization), the IC50 turned out to be 300 nM.
